US12448491B2, “Nano-patterend conductive polymer substrate with improved cell alignment, maturity, adhesion, and connectivity and method for manufacturing same” (priority 2022, dated 2025)

What was measured:
[1] = test system: cardiomyocytes; assay: Drug screening on bare and embedded PDMS cantilevers (beat displacement); format: cell-based, rat; conditions: for displacement reduction: 10 nM drug; for contraction returned compared with before drug treatment: 24 h after media replacement
Source text: To quantitatively analyze the correlation between cell maturation and drug toxicity, polymer cantilever arrays composed of the bare thin film and the embedded thin film were fabricated.

[2] = test system: neonatal rat ventricular myocytes (NRVMs); assay: Comparison of NRVM and hiPSC-CM in drug test (NRVM); format: cell-based; conditions: animal cells
Source text: (§1) There are several similarities and differences in the drug response between animal and human cardiomyocytes.

[3] = test system: human-induced pluripotent stem cell-cardiomyocytes (hiPSC-CMs); assay: Comparison of NRVM and hiPSC-CM in drug test (hiPSC-CM); format: cell-based
Source text: as §1

[4] = test system: human-induced pluripotent stem cell-cardiomyocytes (hiPSC-CMs); assay: Drug screening for hiPSC-CMs on bare and embedded PDMS; format: cell-based; conditions: after 48 h
Method: Since pre-clinical studies on rats could not completely predict effects on the human heart, human-induced pluripotent stem cell-cardiomyocytes (hiPSC-CMs) had significant advantages over the use of animal models. To further investigate the responses of different drugs on immature and mature cardiomyocytes in human cells, hiPSC-CMs were cultured.

SMILES	resistance of cardiomyocytes to the drug ([1]; cultured on embedded PDMS, FIGS. 17B and 17C)	tendency of beat frequency and contraction with increasing drug [2]	IC50 ([3]; (b) of FIG. 20A, NRVM vs hiPSC-CM comparison, cell type of the value not stated)	tendency of beat frequency and contraction with increasing drug ([3]; human cells)	contraction force returned after replacement of culture ([4]; hiPSC-CMs on bare PDMS)	contraction force returned after replacement of culture ([4]; hiPSC-CMs on embedded PDMS)	displacement reduction ([1]; bare PDMS cantilever)	displacement reduction ([1]; embedded PDMS cantilever)	beating of cardiomyocytes ([1]; 1 μM drug, cultured on bare PDMS)	beat rate level compared with the maximum displacement value ([1]; 1 μM drug, cultured on embedded PDMS)	contraction returned compared with before drug treatment ([1]; bare PDMS cantilever)	contraction returned compared with before drug treatment ([1]; embedded PDMS cantilever)	decreased contraction force returned after washing ([1]; after washing for 48 h, AgNW-embedded PDMS substrate)	beat behavior after washing ([1]; after washing for 48 h, control bare PDMS)	IC50 ([1]; cardiomyocytes cultured on bare PDMS thin film)	IC50 ([1]; cardiomyocytes cultured on embedded PDMS thin film)
Cc1cccc(CCN2CCC(C(=O)c3ccc(NS(C)(=O)=O)cc3)CC2)n1 [E-4031]	enhanced resistance															
Cc1ccc2c(c1)C(=O)C1(O)CCN(c3ccccc3)C1=N2 (stereo not shown) [blebbistatin]		decrease both beat frequency and contraction force	~1000 nM	decrease only displacement	did not return	≥ 70%	half displacement reduction	about 10%	no longer beat	20%	10%	≥ 75%	75%	not returned to the initial state	174 nM	521 nM
